Tested on: skin
Experiment: Test for skin accumulated stimulus, HRIPT (Human repeated insult patch tests)
Format: in vivo
Parameters: key to skin reactivity (ICDRG criteria): −: negative (no response); ±: doubtful or slight erythema, etc.; +: weak reaction (which is accompanied with no phlyctenule), erythema, papule; ++: severe reaction (which is accompanied with phlyctenule), erythema, papule, phlyctenule; +++: strong reaction, bullae reaction
Conditions: for Number of examinees who exhibited ±, +, or ++ reactivity, 1st: 1st patch; for Number of examinees who exhibited ±, +, or ++ reactivity, 2nd: 2nd patch; for Number of examinees who exhibited ±, +, or ++ reactivity, 3rd: 3rd patch; for Number of examinees who exhibited ±, +, or ++ reactivity, 4th: 4th patch; for Number of examinees who exhibited ±, +, or ++ reactivity, 5th: 5th patch; for Number of examinees who exhibited ±, +, or ++ reactivity, 6th: 6th patch; for Number of examinees who exhibited ±, +, or ++ reactivity, 7th: 7th patch; for Number of examinees who exhibited ±, +, or ++ reactivity, 8th: 8th patch; for average reactivity: 9 patches over 3 weeks, 15 examinees, less than 3 is considered a stable composition; for Number of examinees who exhibited ±, +, or ++ reactivity, 9th: 9th patch
Procedure: HRIPT (Human repeated insult patch tests) was conducted in order to identify skin accumulated stimulus of quercetin3-O-[3-O″-(E)-p-coumaroyl][β-D-glucopyranosyl-(1→3)-O-α-L-rhamnopyranosyl-(1→6)-O-β-D-glucopyranoside] and quercetin3-O-[3-O″-(E)-p-coumaroyl][α-L-rhamnopyranosyl-(1→6)-O-β-D-glucopyranoside] and to calculate the concentration range that can be used in skin. Specifically, 15 healthy adult examinees were randomly selected, and test compositions in which the compounds were respectively comprised in an amount of 0.5 wt. %, 1 wt. %, and 3 wt. % (the compositions for skin, comprising an emulsifying agent, a stabilizer, purified water, etc. in addition to the compounds) were dropped in the amount of 20 μl per chamber (IQ chamber, Epitest Ltd, Finland), and patched on the right site of the upper back of the examinees, and then, after 24 hours, the patch was replaced with a new patch. A total of 9 patches were conducted, three times a week for total 3 weeks, in such manner, the skin reactions before and after patch were examined every time, and the skin reactions until 48 hours after removing the final patch were observed, and the average reactivity was observed. The skin reaction was determined according to the criteria of International Contact Dermatitis Research Group (ICDRG). In the above table, “New Material 31” refers to quercetin3-O-[3-O″-(E)-p-coumaroyl][β-D-glucopyranosyl-(1→3)-O-α-L-rhamnopyranosyl-(1→6)-O-β-D-glucopyranoside], and “New Material 32” refers to quercetin3-O-[3-O″-(E)-p-coumaroyl][α-L-rhamnopyranosyl-(1→6)-O-β-D-glucopyranoside].

## C[C@@H]1O[C@@H](OC[C@H]2O[C@@H](Oc3c(-c4ccc(O)c(O)c4)oc4cc(O)cc(O)c4c3=O)[C@H](O)[C@@H](OC(=O)/C=C/c3ccc(O)cc3)[C@@H]2O)[C@H](O)[C@H](O)[C@H]1O [New Material 32, quercetin3-O-[3-O″-(E)-p-coumaroyl][α-L-rhamnopyranosyl-(1→6)-O-β-D-glucopyranoside]]
0.5 wt. %, line 1 of 3 (±)
  Number of examinees who exhibited ±, +, or ++ reactivity, 1st: 0 number
  Number of examinees who exhibited ±, +, or ++ reactivity, 2nd: 0 number
  Number of examinees who exhibited ±, +, or ++ reactivity, 3rd: 0 number
  Number of examinees who exhibited ±, +, or ++ reactivity, 4th: 0 number
  Number of examinees who exhibited ±, +, or ++ reactivity, 5th: 0 number
  Number of examinees who exhibited ±, +, or ++ reactivity, 6th: 0 number
  Number of examinees who exhibited ±, +, or ++ reactivity, 7th: 0 number
  Number of examinees who exhibited ±, +, or ++ reactivity, 8th: 0 number
  Number of examinees who exhibited ±, +, or ++ reactivity, 9th: 0 number
0.5 wt. %, line 2 of 3 (+)
  Number of examinees who exhibited ±, +, or ++ reactivity, 1st: 0 number
  Number of examinees who exhibited ±, +, or ++ reactivity, 2nd: 0 number
  Number of examinees who exhibited ±, +, or ++ reactivity, 3rd: 0 number
  Number of examinees who exhibited ±, +, or ++ reactivity, 4th: 0 number
  Number of examinees who exhibited ±, +, or ++ reactivity, 5th: 0 number
  Number of examinees who exhibited ±, +, or ++ reactivity, 6th: 0 number
  Number of examinees who exhibited ±, +, or ++ reactivity, 7th: 0 number
  Number of examinees who exhibited ±, +, or ++ reactivity, 8th: 0 number
  Number of examinees who exhibited ±, +, or ++ reactivity, 9th: 0 number
0.5 wt. %, line 3 of 3 (++)
  Number of examinees who exhibited ±, +, or ++ reactivity, 1st: 0 number
  Number of examinees who exhibited ±, +, or ++ reactivity, 2nd: 0 number
  Number of examinees who exhibited ±, +, or ++ reactivity, 3rd: 0 number
  Number of examinees who exhibited ±, +, or ++ reactivity, 4th: 0 number
  Number of examinees who exhibited ±, +, or ++ reactivity, 5th: 0 number
  Number of examinees who exhibited ±, +, or ++ reactivity, 6th: 0 number
  Number of examinees who exhibited ±, +, or ++ reactivity, 7th: 0 number
  Number of examinees who exhibited ±, +, or ++ reactivity, 8th: 0 number
  Number of examinees who exhibited ±, +, or ++ reactivity, 9th: 0 number
0.5 wt. %
  average reactivity: 0
1 wt. %, line 1 of 3 (±)
  Number of examinees who exhibited ±, +, or ++ reactivity, 1st: 0 number
  Number of examinees who exhibited ±, +, or ++ reactivity, 2nd: 0 number
  Number of examinees who exhibited ±, +, or ++ reactivity, 3rd: 0 number
  Number of examinees who exhibited ±, +, or ++ reactivity, 4th: 0 number
  Number of examinees who exhibited ±, +, or ++ reactivity, 5th: 0 number
  Number of examinees who exhibited ±, +, or ++ reactivity, 6th: 0 number
  Number of examinees who exhibited ±, +, or ++ reactivity, 7th: 0 number
  Number of examinees who exhibited ±, +, or ++ reactivity, 8th: 0 number
  Number of examinees who exhibited ±, +, or ++ reactivity, 9th: 0 number
1 wt. %, line 2 of 3 (+)
  Number of examinees who exhibited ±, +, or ++ reactivity, 1st: 0 number
  Number of examinees who exhibited ±, +, or ++ reactivity, 2nd: 0 number
  Number of examinees who exhibited ±, +, or ++ reactivity, 3rd: 0 number
  Number of examinees who exhibited ±, +, or ++ reactivity, 4th: 0 number
  Number of examinees who exhibited ±, +, or ++ reactivity, 5th: 0 number
  Number of examinees who exhibited ±, +, or ++ reactivity, 6th: 0 number
  Number of examinees who exhibited ±, +, or ++ reactivity, 7th: 0 number
  Number of examinees who exhibited ±, +, or ++ reactivity, 8th: 0 number
  Number of examinees who exhibited ±, +, or ++ reactivity, 9th: 0 number
1 wt. %, line 3 of 3 (++)
  Number of examinees who exhibited ±, +, or ++ reactivity, 1st: 0 number
  Number of examinees who exhibited ±, +, or ++ reactivity, 2nd: 0 number
  Number of examinees who exhibited ±, +, or ++ reactivity, 3rd: 0 number
  Number of examinees who exhibited ±, +, or ++ reactivity, 4th: 0 number
  Number of examinees who exhibited ±, +, or ++ reactivity, 5th: 0 number
  Number of examinees who exhibited ±, +, or ++ reactivity, 6th: 0 number
  Number of examinees who exhibited ±, +, or ++ reactivity, 7th: 0 number
  Number of examinees who exhibited ±, +, or ++ reactivity, 8th: 0 number
  Number of examinees who exhibited ±, +, or ++ reactivity, 9th: 0 number
1 wt. %
  average reactivity: 0
3 wt. %, line 1 of 3 (±)
  Number of examinees who exhibited ±, +, or ++ reactivity, 1st: 0 number
  Number of examinees who exhibited ±, +, or ++ reactivity, 2nd: 0 number
  Number of examinees who exhibited ±, +, or ++ reactivity, 3rd: 0 number
  Number of examinees who exhibited ±, +, or ++ reactivity, 4th: 0 number
  Number of examinees who exhibited ±, +, or ++ reactivity, 5th: 0 number
  Number of examinees who exhibited ±, +, or ++ reactivity, 6th: 0 number
  Number of examinees who exhibited ±, +, or ++ reactivity, 7th: 0 number
  Number of examinees who exhibited ±, +, or ++ reactivity, 8th: 0 number
  Number of examinees who exhibited ±, +, or ++ reactivity, 9th: 0 number
3 wt. %, line 2 of 3 (+)
  Number of examinees who exhibited ±, +, or ++ reactivity, 1st: 0 number
  Number of examinees who exhibited ±, +, or ++ reactivity, 2nd: 0 number
  Number of examinees who exhibited ±, +, or ++ reactivity, 3rd: 0 number
  Number of examinees who exhibited ±, +, or ++ reactivity, 4th: 0 number
  Number of examinees who exhibited ±, +, or ++ reactivity, 5th: 0 number
  Number of examinees who exhibited ±, +, or ++ reactivity, 6th: 0 number
  Number of examinees who exhibited ±, +, or ++ reactivity, 7th: 0 number
  Number of examinees who exhibited ±, +, or ++ reactivity, 8th: 0 number
  Number of examinees who exhibited ±, +, or ++ reactivity, 9th: 0 number
3 wt. %, line 3 of 3 (++)
  Number of examinees who exhibited ±, +, or ++ reactivity, 1st: 0 number
  Number of examinees who exhibited ±, +, or ++ reactivity, 2nd: 0 number
  Number of examinees who exhibited ±, +, or ++ reactivity, 3rd: 0 number
  Number of examinees who exhibited ±, +, or ++ reactivity, 4th: 0 number
  Number of examinees who exhibited ±, +, or ++ reactivity, 5th: 0 number
  Number of examinees who exhibited ±, +, or ++ reactivity, 6th: 0 number
  Number of examinees who exhibited ±, +, or ++ reactivity, 7th: 0 number
  Number of examinees who exhibited ±, +, or ++ reactivity, 8th: 0 number
  Number of examinees who exhibited ±, +, or ++ reactivity, 9th: 0 number
3 wt. %
  average reactivity: 0
Within the range of contents 0.5 wt. %, 1 wt. %, 3 wt. %
  skin reactivity (ICDRG criteria): −
